“Also recorded” adds a separate entry of the source. *: point of attachment. CH2F = FC*

Test [1] deals with human recombinant CtsL. The test is described as follows: Fluorescent protease activity assay, recombinant CtsL. It counts as biochemical. As to conditions: 20 nM CtsL, 50 μM Ac-PLVQ-AMC, inhibitor 2 μM; 0.1 M sodium acetic buffer pH 4.6, 12 min, Ex/Em 353/442 nm. The procedure: Ac-PLVE-FMK and Ac-VLPE-FMK inhibitory properties were evaluated against human recombinant CtsL and B. These recombinant enzymes were expressed in E. coli via plasmid transformation and further purification, using nickel-nitrilotriacetic acid (Ni-NTA) sepharose. Gel zymography assay was used to provide a preliminary evaluation of the ability of these recombinant proteins to degrade the gelatin substrate previously embedded in the gel (Supplementary Figure S1). Following Coomassie staining, the Cts were detectable as single bands. As expected, a translucent area was evident, due to the substrate digestion in the proximity of the proteins. Then, the recombinant proteins were tested for their ability to digest the Triticain-α substrate Ac-PLVQ via fluorescent protease activity assay, previously optimized by our group. This probe was conjugated with the fluorogenic chromophore 7-amino-4-methylcoumarin (Ac-PLVQ-AMC). After proteolytic cleavage, it emits a detectable fluorescent signal.
Total RNA extract from retinoblastoma […] cells was used to obtain cDNA. A pair of oligonucleotides ([…] and […]) was used for the amplification of DNA fragment containing CtsB, the product of which was ligated into pET15b (Merck Millipore, Billerica, MA, USA) using NdeI and XhoI. DNA fragment containing CtsL was amplified using a pair of oligonucleotides ([…] and […]) and ligated into pET28a (+) (Merck Millipore, Billerica, MA, USA) using NheI and HindIII. […]
The activity of recombinant CtsL and B was detected by the hydrolysis of the fluorogenic substrate Ac-Pro-Leu-Val-Gln- 7-amino-4-methylcoumarin (AMC) (Pepmic Suzhou Jiangsu, China). […] The substrate was added to a final concentration of 50 μM, and its hydrolysis was continuously measured for 12 min using a CLARIOstar® Plus plate reader (BMG Labtech Ortenberg Baden-Württemberg, Germany) at excitation and emission wavelengths of 353 and 442 nm, respectively.

Test [2] concerns LAMP-1 in 769-P cells. The test is described as follows: LAMP-1 protein expression (western blot), 769-P. It counts as cell-based, human. The following applies: 20 μM, 24, 48, 72 h. Here is the method: Figure 7 Effect of the peptides on LAMP-1 protein expression: (a) Western blotting analysis of LAMP-1 after treatment with PLVE and VLPE (20 μM) for 24, 48, and 72 h in 769-P cells. (b) Confocal microscopy evaluation of LAMP-1 expression after 48 and 72 h of treatment with PLVE and VLPE (20 μM) in 769-P cells. (c) Western blotting analysis of LAMP-1 after treatment with PLVE and VLPE (20 μM) for 24, 48, and 72 h in A498 cells. (d) Confocal microscopy evaluation of LAMP-1 expression after 48 and 72 h of treatment with PLVE and VLPE (20 μM) in A498 cells. Data are represented as mean ± SD of at least three replicates. Significance was calculated through one-way ANOVA followed by Dunnet’s test. * = p < 0.05, ** = p < 0.01, *** = p < 0.001. Cells were seeded in RPMI containing 10% FBS and cultured for 24 h. Next, 30 µM of inhibitors were added to the culture medium and incubated for 24, 48, and 72 h. Control cells were treated with 0.01% DMSO. At all time points the samples were lysed in 50 mM Tri-HCl (pH 8.0), 100 mM NaCl, 0.5% NP-40, 1% Triton X-100, 1× protease inhibitor cocktail (ThermoFisher, Waltham, MA, USA). The 50 µg of protein lysates were separated by electrophoresis on a 12% SDS-PAGE gel and transferred to the PFDF membranes. […] After an additional wash (three times with PBS), reactive bands were detected by chemiluminescence (Bio-Rad, Irvine, CA, USA). […]
(In western blotting, separated proteins are transferred to a membrane and probed.)

Regarding Ac-VLPE-CH2F [Ac-VLPE-FMK], in test [1], the “Inhibition of Ac-PLVQ-AMC cleavage (fluorescent signal)” value is recorded as “the intensity of the fluorescent signal was significantly affected”. The LAMP-1 protein expression result in test [2] was “significantly increased the expression of this lysosomal biomarker at all the considered time points, reaching significant peaks at 48 h of treatment; also recorded: more efficient than Ac-PLVE-FMK in increasing the expression of LAMP-1”.
For Ac-PLVE-CH2F [Ac-PLVE-FMK], in test [1], the “Inhibition of Ac-PLVQ-AMC cleavage (fluorescent signal)” value is given as “the intensity of the fluorescent signal was significantly affected”. For the same substance, in test [2], the LAMP-1 protein expression result was “significantly increased the expression of this lysosomal biomarker at all the considered time points, reaching significant peaks at 48 h of treatment”.

The record behind these values is paper PMC7281206, “Cysteine Cathepsins Inhibition Affects Their Expression and Human Renal Cancer Cell Phenotype” (Cancers, 2020).
